The source of these data is PubChem BioAssay (NCI).

Each structure is given as a SMILES string.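 Cells were grown in 96-well plates and exposed to each compound for 48 hours at five concentrations; endpoints were interpolated linearly between bracketing concentrations, or set to the highest concentration if not reached. Here, GI50 denotes the concentration required for 50% inhibition of growth. TGI marks complete inhibition of growth.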

One assay has as its system DMS 114 small cell lung. Description: NCI tumour cell line growth inhibition, 48 h.
Consider `CC/C=C\C/C=C\C/C=C\CCCCCCCC(=O)OCC(O)CO` (configuration not stated), for which the TGI was over 71 µM.

Turning to `Cc1cccc(C)c1NC(=O)/C(=N/NC(N)=S)C(C)C(=O)c1ccc(Cl)cc1` (configuration not stated), the TGI is over 100 µM.

As to `N#CC(C#N)=C1NC(=O)CC(=O)N1`, the TGI is over 100 µM.

For the compound `Nc1nc(OCc2ccccc2)c2[nH]cnc2n1`, the TGI is 191 µM.

Regarding `Fc1ccc(C2SCc3nc4ccccc4n32)c(F)c1` (configuration not stated), the TGI was over 100 µM.

Compound `NC(=O)c1csc(C2OC(CO)C(O)C2O)n1` (configuration not stated) came in with a TGI of 3160 µM.

On to `COc1cc(C(=O)C/C(CCC(=O)Nc2ccccc2[N+](=O)[O-])=N\NC(N)=O)ccc1O`, for which the TGI was over 100 µM.

For the compound `CCN(CC)CC1c2ccccc2C(CNc2ccccc2)N1C` (configuration not stated), the TGI is over 100 µM.

As for `CC1(O)C=CC(=O)C=C1`, the TGI was found to be 32.3 µM.

Take `COc1ccc(-c2cc(Cc3cccs3)c(=O)[nH]n2)cc1`: the TGI was over 100 µM.

As to `CC(=O)Nc1ccc(SC#N)c2c(NC(C)=O)cccc12`, the TGI was over 100 µM.

On to `Cc1ccc(-c2nnc(-c3nn(-c4ccccc4)c4nc5ccccc5nc34)o2)cc1`, for which the TGI amounted to 51.1 µM.

The compound `Cc1ccc2c(C3Cc4ccccc4N3C(=O)/C=C\C(=O)O)c(C)[nH]c2c1` (configuration not stated) returned a TGI of over 100 µM.

In the case of `COc1ccc(C=O)c([N+](=O)[O-])c1`, the TGI was found to be 66.9 µM.

`CCOC(=O)C1C(=S)NC(=O)C1C#N` (configuration not stated) showed a TGI of over 100 µM.

Regarding `COC(=O)C1(C)CCc2c(OC)ccc(OC)c2C1=O` (configuration not stated), the TGI is over 100 µM.

Take `COC(=O)C1CC2CC(=NNC(N)=O)CC2C1` (configuration not stated): the TGI is over 100 µM.

Turning to `CC#CCC1CCC(OCC)=CC1=O` (configuration not stated), the TGI is over 100 µM.

As for `N#CC(=C1C=CC(=NO)C=C1)c1ccc(Cl)cc1`, the TGI was determined as 31.5 µM.

With `Cc1c(/C=N/N=C/c2[nH]c(C(=O)OC(C)(C)C)c(C)c2C)[nH]c(C(=O)OC(C)(C)C)c1C`, the TGI is over 100 µM.

As for `O=C(NC1CCCCC1)NS(=O)(=O)c1ccc2c(c1)CCC2`, the TGI was over 100 µM.

The subject of the next assay is HOP-18 NSCLC. The assay is described as follows: NCI tumour cell line growth inhibition, 48 h.
The compound `CC/C=C\C/C=C\C/C=C\CCCCCCCC(=O)OCC(O)CO` (configuration not stated) gave a TGI of over 100 µM.

For `Cc1cccc(C)c1NC(=O)/C(=N/NC(N)=S)C(C)C(=O)c1ccc(Cl)cc1` (configuration not stated), the TGI was over 100 µM.

As for `Nc1nc(OCc2ccccc2)c2[nH]cnc2n1`, the TGI amounted to 335 µM.

In the case of `Fc1ccc(C2SCc3nc4ccccc4n32)c(F)c1` (configuration not stated), the TGI is over 100 µM.

With `NC(=O)c1csc(C2OC(CO)C(O)C2O)n1` (configuration not stated), the TGI was over 3980 µM.

The compound `COc1cc(C(=O)C/C(CCC(=O)Nc2ccccc2[N+](=O)[O-])=N\NC(N)=O)ccc1O` had a TGI of over 100 µM.

The compound `CC1(O)C=CC(=O)C=C1` gave a TGI of over 100 µM.

`CC(=O)Nc1ccc(SC#N)c2c(NC(C)=O)cccc12` came in with a TGI of over 100 µM.

The compound `Cc1ccc(-c2nnc(-c3nn(-c4ccccc4)c4nc5ccccc5nc34)o2)cc1` came in with a TGI of 65.2 µM.

Consider `COc1ccc(C=O)c([N+](=O)[O-])c1`, for which the TGI is over 100 µM.

In turn, `CCOC(=O)C1C(=S)NC(=O)C1C#N` (configuration not stated) returned a TGI of over 100 µM.

Compound `CC#CCC1CCC(OCC)=CC1=O` (configuration not stated) came in with a TGI of over 100 µM.

Take `N#CC(=C1C=CC(=NO)C=C1)c1ccc(Cl)cc1`: the TGI is over 100 µM.

In turn, `COc1cc2c(c(OC)c1OC)-c1ccc(SC)c(=O)cc1C(NC(=O)c1ccccc1)CC2` (configuration not stated) gave a TGI of over 100 µM.

Compound `Cc1c(/C=N/N=C/c2[nH]c(C(=O)OC(C)(C)C)c(C)c2C)[nH]c(C(=O)OC(C)(C)C)c1C` yielded a TGI of over 100 µM.

Turning to `O=C(NC1CCCCC1)NS(=O)(=O)c1ccc2c(c1)CCC2`, the TGI was over 100 µM.

Another assay deals with LXFL 529 NSCLC. Description: NCI tumour cell line growth inhibition, 48 h.
The compound `CC/C=C\C/C=C\C/C=C\CCCCCCCC(=O)OCC(O)CO` (configuration not stated) gave a TGI of over 68.9 µM.

Regarding `Cc1cccc(C)c1NC(=O)/C(=N/NC(N)=S)C(C)C(=O)c1ccc(Cl)cc1` (configuration not stated), the TGI is over 100 µM.

`N#CC(C#N)=C1NC(=O)CC(=O)N1` registered a TGI of over 100 µM.

As for `Nc1nc(OCc2ccccc2)c2[nH]cnc2n1`, the TGI turned out to be 400 µM.

For the compound `CCN(CC)CC1c2ccccc2C(CNc2ccccc2)N1C` (configuration not stated), the TGI is over 100 µM.

For `CC1(O)C=CC(=O)C=C1`, the TGI was 26.4 µM.

The compound `COc1ccc(-c2cc(Cc3cccs3)c(=O)[nH]n2)cc1` showed a TGI of over 100 µM.

Consider `CC(=O)Nc1ccc(SC#N)c2c(NC(C)=O)cccc12`, for which the TGI was over 73 µM.

`Cc1ccc(-c2nnc(-c3nn(-c4ccccc4)c4nc5ccccc5nc34)o2)cc1` displayed a TGI of 35.7 µM.

Take `Cc1ccc2c(C3Cc4ccccc4N3C(=O)/C=C\C(=O)O)c(C)[nH]c2c1` (configuration not stated): the TGI turned out to be 42.9 µM.

Take `CCOC(=O)C1C(=S)NC(=O)C1C#N` (configuration not stated): the TGI is over 100 µM.

The compound `COC(=O)C1(C)CCc2c(OC)ccc(OC)c2C1=O` (configuration not stated) displayed a TGI of over 100 µM.

Compound `COC(=O)C1CC2CC(=NNC(N)=O)CC2C1` (configuration not stated) came in with a TGI of over 100 µM.

`CC#CCC1CCC(OCC)=CC1=O` (configuration not stated): the TGI was over 100 µM.

Turning to `O=C1CC(c2c[nH]c3ccccc23)C(=O)N1` (configuration not stated), the TGI is over 100 µM.

With `N#CC(=C1C=CC(=NO)C=C1)c1ccc(Cl)cc1`, the TGI came out at 18 µM.

`COc1cc2c(c(OC)c1OC)-c1ccc(SC)c(=O)cc1C(NC(=O)c1ccccc1)CC2` (configuration not stated) registered a TGI of over 76.5 µM.

Compound `Cc1c(/C=N/N=C/c2[nH]c(C(=O)OC(C)(C)C)c(C)c2C)[nH]c(C(=O)OC(C)(C)C)c1C` showed a TGI of over 100 µM.

For the next assay, the system named is MDA-N. The assay is described as follows: NCI tumour cell line growth inhibition, 48 h.
Turning to `O=C1c2ccccc2-c2cc([N+](=O)[O-])c([N+](=O)[O-])cc21`, the TGI was 5.18 µM.

Consider `NC(=O)c1csc(C2OC(CO)C(O)C2O)n1` (configuration not stated), for which the GI50 is 59.5 µM and the TGI is over 6490 µM.

`OCC12C3C4C5C3C1C5C42` (configuration not stated) yielded a TGI of over 100 µM.

`O=C1OC(=O)C(=C\c2ccc3c(c2)OCO3)/C1=C/c1ccc2c(c1)OCO2`: the TGI is over 100 µM.

As to `COc1ccccc1-c1cc(=O)c2cc(C)cnc2[nH]1`, the GI50 was 4.41 µM and the TGI turned out to be 24.9 µM.
